# The source made the active and inactive calls.
# Columns and labels:
# [1] = target: Intestinal-type alkaline phosphatase (Homo sapiens, UniProt P09923); test: Dose Response confirmation of uHTS hits from a small molecule inhibitors of human intestinal alkaline phosphatase via a luminescent assay. [Related pubchem assays (depositor defined):AID2544, AID2574]; assay type: functional
# [2] = target: Large T antigen (Simian virus 40, UniProt P03070); assay type: functional, Betapolyomavirus macacae;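 further: Confirmatory-stage PubChem screen for compounds that inhibit SV40 T antigen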
# Sequence of Large T antigen (P03070 whole entry): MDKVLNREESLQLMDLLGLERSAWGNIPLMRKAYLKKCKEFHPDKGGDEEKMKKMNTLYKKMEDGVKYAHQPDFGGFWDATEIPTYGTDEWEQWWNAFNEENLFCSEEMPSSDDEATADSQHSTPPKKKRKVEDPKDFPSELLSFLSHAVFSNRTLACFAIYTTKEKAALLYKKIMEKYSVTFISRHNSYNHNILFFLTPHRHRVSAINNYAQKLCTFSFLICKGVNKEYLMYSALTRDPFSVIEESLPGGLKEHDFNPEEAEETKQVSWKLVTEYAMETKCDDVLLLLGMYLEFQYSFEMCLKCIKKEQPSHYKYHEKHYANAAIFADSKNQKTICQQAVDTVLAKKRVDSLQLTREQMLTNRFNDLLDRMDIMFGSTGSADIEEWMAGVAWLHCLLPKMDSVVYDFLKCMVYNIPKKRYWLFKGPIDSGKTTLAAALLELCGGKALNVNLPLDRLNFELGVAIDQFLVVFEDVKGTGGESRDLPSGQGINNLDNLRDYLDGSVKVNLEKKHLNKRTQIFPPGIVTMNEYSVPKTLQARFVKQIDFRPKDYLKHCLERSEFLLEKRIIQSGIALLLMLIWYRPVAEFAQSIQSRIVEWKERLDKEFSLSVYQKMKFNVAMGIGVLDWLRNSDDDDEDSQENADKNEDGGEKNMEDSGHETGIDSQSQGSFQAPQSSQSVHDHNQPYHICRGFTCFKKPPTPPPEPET
# [3] = target: DNA dC->dU-editing enzyme APOBEC-3A (Homo sapiens, UniProt P31941); test: A3A deaminase inhibition for selectivity – biochemical, dose response (AID 504722); assay type: functional
# Sequence of DNA dC->dU-editing enzyme APOBEC-3A (P31941 whole entry): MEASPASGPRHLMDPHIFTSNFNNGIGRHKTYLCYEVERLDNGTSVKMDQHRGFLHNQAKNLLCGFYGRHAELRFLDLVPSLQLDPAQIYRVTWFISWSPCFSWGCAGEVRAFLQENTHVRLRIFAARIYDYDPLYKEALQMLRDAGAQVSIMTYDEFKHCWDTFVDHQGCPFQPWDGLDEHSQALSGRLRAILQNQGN
# [4] = target: DNA dC->dU-editing enzyme APOBEC-3G (Homo sapiens, UniProt Q9HC16); test: Dose Response confirmation of small molecule APOBEC3G DNA Deaminase Inhibitors via a fluorescence-based single-stranded DNA deaminase assay. [Related pubchem assays (depositor defined):AID493012, AID493028]; assay type: functional
# Sequence of DNA dC->dU-editing enzyme APOBEC-3G (Q9HC16 whole entry): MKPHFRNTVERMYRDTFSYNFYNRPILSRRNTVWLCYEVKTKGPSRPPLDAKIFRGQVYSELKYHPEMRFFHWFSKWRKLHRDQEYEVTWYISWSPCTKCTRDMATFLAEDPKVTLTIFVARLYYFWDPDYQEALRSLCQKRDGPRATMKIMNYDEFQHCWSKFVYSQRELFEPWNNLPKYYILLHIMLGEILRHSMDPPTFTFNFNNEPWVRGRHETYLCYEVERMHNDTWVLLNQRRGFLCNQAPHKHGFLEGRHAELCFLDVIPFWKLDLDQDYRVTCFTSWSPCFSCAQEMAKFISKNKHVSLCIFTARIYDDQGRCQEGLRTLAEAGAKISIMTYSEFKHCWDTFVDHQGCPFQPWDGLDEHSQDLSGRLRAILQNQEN
# [5] = test system: BJ; test: BJ-TERT fibroblast viability loss – cell-based, RAS-independent, luminescence, dose response (AID 1933); assay type: functional; conditions: Homo sapiens
# [6] = test system: BJ; test: cells; assay type: functional, cell-based; conditions: Homo sapiens
# [7] = Trypanosoma cruzi growth suppression in host cells – NIH3T3 host cells, beta-gal luminescence, confirmation (AID 2044); assay type: functional, cell-based;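 further: intracellular parasites grown in NIH/3T3 mouse fibroblasts as host cells; luminescent beta-galactosidase reporter signal from transgenic T. cruzi replicating inside host cells; inhibitors lower the luminescence signal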
# [8] = NIH3T3 cell viability loss – ATP luminescence, mouse fibroblasts, counter-screen, dose response (AID 2010); assay type: functional, cell-based;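 further: cells exposed to compound for about 90 hours before reading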
# [9] = test system: BJ; test: BJ-TERT-LT-ST fibroblast viability loss – cell-based, RAS-independent, luminescence, dose response (AID 1935); assay type: functional; conditions: Homo sapiens;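 further: BJ fibroblasts immortalized with TERT plus LT and ST oncogenes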
# [10] = DRD fibroblast viability loss – cell-based, non-viral oncogenic, luminescence, dose response (AID 1934); assay type: functional; conditions: Homo sapiens
# [11] = HEK-293T cell viability reduction – luminescence, B-cell screen hits, cytotoxicity control for BCR NF-kB inhibitor project, dose response (AID 489021); assay type: functional, cell-based;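 further: HEK-293T cells carrying an NF-kB luciferase reporter; cells exposed to compound for about 14 hours before viability readout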
# [12] = target: T1, Replicative DNA helicase DnaB (Mycobacterium tuberculosis, UniProt P9WMR3); test: DnaB intein splicing inhibitors, dose response, biochemical, cell-free fluorescence (AID 449749); assay type: functional
# T1 sequence (P9WMR3 whole entry): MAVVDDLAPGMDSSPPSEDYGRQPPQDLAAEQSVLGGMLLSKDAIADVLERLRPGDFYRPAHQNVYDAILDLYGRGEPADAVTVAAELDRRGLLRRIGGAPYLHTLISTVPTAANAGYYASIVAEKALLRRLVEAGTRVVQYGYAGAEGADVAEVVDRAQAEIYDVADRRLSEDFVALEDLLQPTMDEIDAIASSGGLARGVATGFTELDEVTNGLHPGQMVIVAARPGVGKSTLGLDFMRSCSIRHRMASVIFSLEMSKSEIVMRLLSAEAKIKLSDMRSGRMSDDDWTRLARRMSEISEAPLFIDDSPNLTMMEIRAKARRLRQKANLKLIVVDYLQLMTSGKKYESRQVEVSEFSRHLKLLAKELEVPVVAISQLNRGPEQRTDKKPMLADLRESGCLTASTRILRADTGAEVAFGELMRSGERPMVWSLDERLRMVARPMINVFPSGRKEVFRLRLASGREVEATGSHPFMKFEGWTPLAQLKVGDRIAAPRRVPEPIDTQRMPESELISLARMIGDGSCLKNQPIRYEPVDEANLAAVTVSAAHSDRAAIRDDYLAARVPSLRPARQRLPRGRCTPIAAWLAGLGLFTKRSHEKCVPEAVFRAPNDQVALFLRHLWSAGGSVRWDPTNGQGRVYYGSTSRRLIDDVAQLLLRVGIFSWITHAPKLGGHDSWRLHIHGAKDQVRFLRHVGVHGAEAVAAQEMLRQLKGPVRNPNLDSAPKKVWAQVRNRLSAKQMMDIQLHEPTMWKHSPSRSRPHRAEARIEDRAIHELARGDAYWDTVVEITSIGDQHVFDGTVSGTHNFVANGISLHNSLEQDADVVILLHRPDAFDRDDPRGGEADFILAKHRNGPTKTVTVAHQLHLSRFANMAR
# [13] = target: T2, Protein RecA (Mycobacterium tuberculosis, UniProt P9WHJ3); test: Fluorescence Cell-Free Homogeneous Dose Retest to Identify Inhibitors of RecA-Intein Splicing Activity. [Related pubchem assays (depositor defined):AID2097, AID2223, AID489010, AID492950]; assay type: functional
# T2 sequence (P9WHJ3 whole entry): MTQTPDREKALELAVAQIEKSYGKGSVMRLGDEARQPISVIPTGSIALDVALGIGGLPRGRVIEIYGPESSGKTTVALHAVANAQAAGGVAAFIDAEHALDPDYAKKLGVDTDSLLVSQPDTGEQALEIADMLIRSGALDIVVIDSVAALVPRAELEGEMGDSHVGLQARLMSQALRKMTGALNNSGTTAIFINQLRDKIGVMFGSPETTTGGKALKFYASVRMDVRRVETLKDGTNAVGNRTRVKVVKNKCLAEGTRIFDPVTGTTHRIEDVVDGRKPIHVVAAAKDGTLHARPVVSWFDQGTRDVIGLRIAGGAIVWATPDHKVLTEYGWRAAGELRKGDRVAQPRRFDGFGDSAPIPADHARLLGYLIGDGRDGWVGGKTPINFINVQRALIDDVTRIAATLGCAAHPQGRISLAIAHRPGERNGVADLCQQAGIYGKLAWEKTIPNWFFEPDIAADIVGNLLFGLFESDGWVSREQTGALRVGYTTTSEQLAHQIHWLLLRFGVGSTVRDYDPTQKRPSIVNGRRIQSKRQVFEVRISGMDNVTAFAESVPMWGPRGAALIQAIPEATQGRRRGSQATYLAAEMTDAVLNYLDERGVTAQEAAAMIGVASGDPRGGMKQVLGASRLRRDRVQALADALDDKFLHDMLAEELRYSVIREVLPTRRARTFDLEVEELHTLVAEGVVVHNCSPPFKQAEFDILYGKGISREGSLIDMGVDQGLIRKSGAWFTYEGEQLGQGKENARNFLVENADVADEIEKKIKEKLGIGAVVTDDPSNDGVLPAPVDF
# [14] = target: Protein Wnt-3a (Mus musculus, UniProt P27467); test: antagonism of Wnt3a pathway luciferase reporter – Wnt-LIGHT cells, luminescence, selectivity assay for Gli-SUFU antagonist project, dose response (AID 651570); assay type: functional; conditions: read-out: IC50_Mean;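 further: Wnt-LIGHT reporter cells stimulated with conditioned medium from Wnt3a-producing cells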
# [15] = target: Glyceraldehyde-3-phosphate dehydrogenase (Homo sapiens, UniProt P04406)
# Sequence of Glyceraldehyde-3-phosphate dehydrogenase (P04406 whole entry): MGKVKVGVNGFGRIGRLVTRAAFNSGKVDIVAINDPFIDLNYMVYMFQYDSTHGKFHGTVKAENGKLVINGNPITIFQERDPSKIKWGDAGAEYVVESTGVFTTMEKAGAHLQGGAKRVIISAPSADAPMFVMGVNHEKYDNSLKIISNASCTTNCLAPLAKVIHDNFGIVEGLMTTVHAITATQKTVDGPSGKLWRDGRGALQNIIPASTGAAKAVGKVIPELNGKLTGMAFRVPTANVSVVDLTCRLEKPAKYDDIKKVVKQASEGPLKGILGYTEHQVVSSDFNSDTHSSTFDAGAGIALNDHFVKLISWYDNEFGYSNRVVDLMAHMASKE
# [16] = target: T3, Alkaline phosphatase, tissue-nonspecific isozyme (Homo sapiens, UniProt P05186); test: potency against alkaline phosphatase TNAP – biochemical, luminescent, dose response, SAR follow-up (AID 1056)
# T3 sequence (P05186 whole entry): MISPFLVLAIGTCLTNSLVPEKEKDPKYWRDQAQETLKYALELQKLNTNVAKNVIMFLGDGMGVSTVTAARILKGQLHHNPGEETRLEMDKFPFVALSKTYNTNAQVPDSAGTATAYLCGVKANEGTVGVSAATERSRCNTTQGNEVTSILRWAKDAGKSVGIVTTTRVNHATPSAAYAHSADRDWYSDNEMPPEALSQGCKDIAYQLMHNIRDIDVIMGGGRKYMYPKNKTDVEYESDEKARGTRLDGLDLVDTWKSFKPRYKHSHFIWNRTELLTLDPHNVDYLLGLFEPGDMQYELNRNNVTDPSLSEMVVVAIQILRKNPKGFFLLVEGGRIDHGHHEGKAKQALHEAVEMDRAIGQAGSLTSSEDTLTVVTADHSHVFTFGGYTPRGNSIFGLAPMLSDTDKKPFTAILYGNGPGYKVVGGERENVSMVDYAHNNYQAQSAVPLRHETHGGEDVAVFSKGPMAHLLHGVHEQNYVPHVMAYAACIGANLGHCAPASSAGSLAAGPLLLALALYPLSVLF
# [17] = A Cell Based Secondary Assay To Explore Cytotoxicity of Compounds that Sensitize Mycobacterium Tuberculosis to Beta-Lactam Antibiotics.; assay type: functional
# [18] = target: Voltage-dependent T-type calcium channel subunit alpha-1H (Homo sapiens, UniProt O95180); assay type: functional;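 further: channel activity triggered by adding a high calcium stimulation buffer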
# Sequence of Voltage-dependent T-type calcium channel subunit alpha-1H (O95180 whole entry): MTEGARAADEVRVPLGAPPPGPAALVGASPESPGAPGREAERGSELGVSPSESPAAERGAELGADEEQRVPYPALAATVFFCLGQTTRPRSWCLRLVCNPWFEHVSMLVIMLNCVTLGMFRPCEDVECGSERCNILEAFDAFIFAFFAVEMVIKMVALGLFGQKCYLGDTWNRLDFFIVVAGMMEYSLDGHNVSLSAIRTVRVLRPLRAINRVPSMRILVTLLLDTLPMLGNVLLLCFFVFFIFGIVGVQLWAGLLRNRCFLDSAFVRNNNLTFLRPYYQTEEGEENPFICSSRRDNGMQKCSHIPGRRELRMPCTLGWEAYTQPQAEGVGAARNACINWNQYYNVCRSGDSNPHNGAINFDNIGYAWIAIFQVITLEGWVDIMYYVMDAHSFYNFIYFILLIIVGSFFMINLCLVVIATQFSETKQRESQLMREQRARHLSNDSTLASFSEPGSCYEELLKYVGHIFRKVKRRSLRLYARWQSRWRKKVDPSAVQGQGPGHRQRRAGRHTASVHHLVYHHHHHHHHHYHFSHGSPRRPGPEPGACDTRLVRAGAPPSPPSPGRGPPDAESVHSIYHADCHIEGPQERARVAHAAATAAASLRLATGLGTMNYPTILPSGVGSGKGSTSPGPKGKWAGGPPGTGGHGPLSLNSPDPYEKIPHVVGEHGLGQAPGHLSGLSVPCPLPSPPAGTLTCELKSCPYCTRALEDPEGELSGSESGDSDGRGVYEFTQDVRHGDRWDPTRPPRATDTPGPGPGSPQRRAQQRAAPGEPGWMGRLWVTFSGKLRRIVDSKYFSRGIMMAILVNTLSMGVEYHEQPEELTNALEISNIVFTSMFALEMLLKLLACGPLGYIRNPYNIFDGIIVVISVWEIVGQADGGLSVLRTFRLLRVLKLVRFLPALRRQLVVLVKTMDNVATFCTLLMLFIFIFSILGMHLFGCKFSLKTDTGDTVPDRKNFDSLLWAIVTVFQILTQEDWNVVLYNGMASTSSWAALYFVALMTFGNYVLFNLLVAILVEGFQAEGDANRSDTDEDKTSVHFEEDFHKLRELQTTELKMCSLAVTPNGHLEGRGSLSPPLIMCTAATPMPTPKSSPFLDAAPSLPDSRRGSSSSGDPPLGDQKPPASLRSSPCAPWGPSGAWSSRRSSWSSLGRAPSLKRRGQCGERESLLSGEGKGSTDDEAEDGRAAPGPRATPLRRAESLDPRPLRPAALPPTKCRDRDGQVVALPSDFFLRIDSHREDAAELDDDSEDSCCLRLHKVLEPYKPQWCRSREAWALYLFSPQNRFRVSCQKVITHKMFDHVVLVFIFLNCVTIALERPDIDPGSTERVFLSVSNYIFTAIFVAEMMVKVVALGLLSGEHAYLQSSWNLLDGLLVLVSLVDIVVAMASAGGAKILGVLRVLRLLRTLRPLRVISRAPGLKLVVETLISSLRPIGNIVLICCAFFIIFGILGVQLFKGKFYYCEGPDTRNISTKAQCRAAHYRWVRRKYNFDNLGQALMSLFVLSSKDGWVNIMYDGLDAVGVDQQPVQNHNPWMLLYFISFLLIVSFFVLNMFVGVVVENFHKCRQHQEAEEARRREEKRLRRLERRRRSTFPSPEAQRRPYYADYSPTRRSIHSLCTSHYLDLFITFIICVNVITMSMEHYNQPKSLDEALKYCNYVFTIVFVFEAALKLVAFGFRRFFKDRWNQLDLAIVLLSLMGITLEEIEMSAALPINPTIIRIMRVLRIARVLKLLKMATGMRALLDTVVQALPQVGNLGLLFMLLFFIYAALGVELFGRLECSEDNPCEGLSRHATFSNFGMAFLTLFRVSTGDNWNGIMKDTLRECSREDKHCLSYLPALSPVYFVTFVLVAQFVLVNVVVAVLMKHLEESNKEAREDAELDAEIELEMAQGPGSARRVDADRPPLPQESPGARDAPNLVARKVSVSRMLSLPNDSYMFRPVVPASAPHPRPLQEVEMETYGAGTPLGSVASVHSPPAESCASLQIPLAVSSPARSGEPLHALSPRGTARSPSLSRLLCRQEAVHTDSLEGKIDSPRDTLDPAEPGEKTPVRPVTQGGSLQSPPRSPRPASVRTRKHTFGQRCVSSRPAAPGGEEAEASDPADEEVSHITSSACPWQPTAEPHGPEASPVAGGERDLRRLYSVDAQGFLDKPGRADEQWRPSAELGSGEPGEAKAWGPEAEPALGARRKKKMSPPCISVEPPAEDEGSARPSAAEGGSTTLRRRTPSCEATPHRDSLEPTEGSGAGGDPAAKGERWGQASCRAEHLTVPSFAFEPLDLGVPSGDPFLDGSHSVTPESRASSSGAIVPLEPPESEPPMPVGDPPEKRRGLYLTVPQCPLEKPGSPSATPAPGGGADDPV
# [19] = target: Cytochrome P450 3A4 (Homo sapiens, UniProt P08684);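 further: CYP3A4 tested as one member of a cytochrome P450 panel screen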
# Sequence of Cytochrome P450 3A4 (P08684 whole entry): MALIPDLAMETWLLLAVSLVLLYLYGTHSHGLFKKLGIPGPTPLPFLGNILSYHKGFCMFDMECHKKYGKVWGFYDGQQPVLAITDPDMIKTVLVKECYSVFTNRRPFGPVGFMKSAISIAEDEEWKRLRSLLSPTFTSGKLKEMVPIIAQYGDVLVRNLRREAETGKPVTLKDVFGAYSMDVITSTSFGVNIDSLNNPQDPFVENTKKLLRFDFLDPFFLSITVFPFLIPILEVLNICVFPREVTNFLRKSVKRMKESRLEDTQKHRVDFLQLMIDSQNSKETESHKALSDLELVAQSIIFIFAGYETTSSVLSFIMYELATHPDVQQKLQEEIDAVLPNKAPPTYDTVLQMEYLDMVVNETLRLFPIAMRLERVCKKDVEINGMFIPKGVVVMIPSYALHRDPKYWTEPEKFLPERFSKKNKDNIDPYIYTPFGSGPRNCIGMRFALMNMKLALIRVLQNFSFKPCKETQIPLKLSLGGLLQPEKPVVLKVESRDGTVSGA
# [20] = target: T4, Dual specificity protein phosphatase 6 (Rattus norvegicus, UniProt Q64346)
# T4 sequence (Q64346 whole entry): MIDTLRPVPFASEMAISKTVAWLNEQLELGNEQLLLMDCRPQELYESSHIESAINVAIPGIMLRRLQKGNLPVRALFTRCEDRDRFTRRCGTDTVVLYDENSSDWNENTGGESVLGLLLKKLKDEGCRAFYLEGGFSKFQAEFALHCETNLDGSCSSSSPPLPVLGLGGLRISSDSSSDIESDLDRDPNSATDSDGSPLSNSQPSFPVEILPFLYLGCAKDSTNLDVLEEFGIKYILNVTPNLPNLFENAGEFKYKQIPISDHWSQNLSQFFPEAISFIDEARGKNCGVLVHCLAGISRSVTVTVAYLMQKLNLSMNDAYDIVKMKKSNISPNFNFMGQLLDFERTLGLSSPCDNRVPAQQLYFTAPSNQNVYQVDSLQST
# [21] = target: T4, Dual specificity protein phosphatase 6; assay type: functional
# Sequence of Intestinal-type alkaline phosphatase (P09923 whole entry): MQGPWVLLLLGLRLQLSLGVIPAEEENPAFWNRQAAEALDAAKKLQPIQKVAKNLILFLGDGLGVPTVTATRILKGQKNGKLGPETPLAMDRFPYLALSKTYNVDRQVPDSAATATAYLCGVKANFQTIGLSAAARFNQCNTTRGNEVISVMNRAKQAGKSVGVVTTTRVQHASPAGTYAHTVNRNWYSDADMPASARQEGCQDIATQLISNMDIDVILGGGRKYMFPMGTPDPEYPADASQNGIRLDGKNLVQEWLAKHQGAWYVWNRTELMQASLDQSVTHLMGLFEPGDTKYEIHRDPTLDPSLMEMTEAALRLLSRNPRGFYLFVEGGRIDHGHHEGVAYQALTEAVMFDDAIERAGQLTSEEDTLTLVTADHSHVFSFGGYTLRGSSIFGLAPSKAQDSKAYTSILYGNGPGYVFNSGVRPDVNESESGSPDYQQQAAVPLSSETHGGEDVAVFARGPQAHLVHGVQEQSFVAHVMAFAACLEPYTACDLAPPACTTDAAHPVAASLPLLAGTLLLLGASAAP
structure (smiles),measurement,setting,value
COc1cc(Cl)ccc1OCc1cc(C(=O)N2CCCCCCC2)no1,IC50,[1],> 100 µM (inactive)
CCSS(=O)(=O)c1cccc2cccnc12,IC50,[2],> 100 µM (active)
same,IC50,[3],> 100 µM (inactive)
same,IC50,[4],12.7 µM (active)
COc1ccc(C(C(=O)NC2CCCCC2)N(C(=O)CCl)c2ccc(Cl)cc2)cc1 (configuration not stated),EC50,[5],0.152 µM (active)
same,EC50,[6],2.51 µM (active)
same,EC50,[7],0.166 µM (active)
same,EC50,[8],1.23 µM (active)
same,EC50,[9],4.11 µM (inconclusive)
same,EC50,[10],0.681 µM (active)
same,IC50,[11],> 80 µM (inactive)
same,AC50,[12],0.774 µM (active)
same,EC50,[13],0.236 µM (active)
same,IC50,[14],3.16 µM (active)
CCCCc1ccc(S(=O)(=O)Nc2cnc3ccccc3c2)cc1,IC50,[15],> 100 µM (not active)
same,IC50,[16],> 100 µM (inactive)
COC(=O)CSc1nnc(S)s1,IC50,[3],> 100 µM (inactive)
same,IC50,[4],17 µM (active)
COC(=O)c1cc(C#N)c(Oc2ccccc2OC)nc1C,IC50,[1],> 100 µM (inactive)
O=C(c1cnn2c(C(F)(F)F)cc(-c3cccs3)nc12)N1CCN(C(c2ccccc2)c2ccccc2)CC1,CC50,[17],> 40 µM (active)
same,EC50,[18],6.75 µM (active)
O=C(Cc1ncc(C(F)(F)F)cc1Cl)Nc1cccc(Br)c1,EC50,[18],4.24 µM (active)
same,AC50,[19],14.1 µM (inconclusive)
CCOc1ccc(NC(=O)CSc2nncn2C)cc1,IC50,[1],> 100 µM (inactive)
O=S(=O)(O)c1ccc2cc(/N=N/c3cc(S(=O)(=O)O)c4cccnc4c3O)ccc2c1,IC50,[15],> 100 µM (not active)
same,IC50,[20],5.1 µM (active)
same,IC50,[21],4.19 µM (active)
